Consider 2 molecules from ChEMBL document CHEMBL3044807, “Synthesis and biological evaluation of new ozonides with improved plant growth regulatory activity” (2009).

The first assay concerns Cucumis sativus. Kind of assay: Phytotoxic activity against Cucumis sativus (cucumber) assessed as weight of aerial parts at 5.0 x 10^-4 mol/l measured 15 days after seed sowing under greenhouse trials (reference value: 47.0 mg). It is filed as functional.
Conditions: not given
In the case of `O=C1[C@@H]2CCCC[C@@H]1[C@@H]1C=C[C@@H]2O1`, the Activity was found to be 32.7 mg.

Consider `CC12OC(C)(C3OOC1O3)C1CCCCC2C1=O` (mixture of isomers), for which the Activity is on record as 26.4 mg.

The next assay deals with Ipomoea grandifolia. In words: Phytotoxic activity against Ipomoea grandifolia assessed as aerial part growth inhibition at 5.0 x 10^-4 mol/l measured 21 days after seed sowing under greenhouse trials (reference value: 0.0%). It is filed as functional. The note with it: 504 h.
Consider `CC12OC(C)(C3OOC1O3)C1CCCCC2C1=O` (mixture of isomers), for which the inhibition at 500 µM stood at 65.4%.

In the next assay the test system is Ipomoea grandifolia. In words: Phytotoxic activity against Ipomoea grandifolia assessed as root growth inhibition at 5.0 x 10^-4 mol/l measured 21 days after seed sowing under greenhouse trials (reference value: 0.0%). It is filed as functional. The settings on record: 504 h.
As to `CC12OC(C)(C3OOC1O3)C1CCCCC2C1=O` (mixture of isomers), the inhibition at 500 µM stood at 64.6%.

The subject of a further assay is Sorghum bicolor. In words: Phytotoxic activity against Sorghum bicolor seedlings assessed as radicle length at 5x10'-4 mol/l at 28 +/-1 degC after 48 hr by acid-washed sand based radicle elongation assay (reference value: 5.1 cm). It is filed as functional.
Conditions: not given
For the molecule `O=C1[C@@H]2CCCC[C@@H]1[C@@H]1C=C[C@@H]2O1`, the Activity turned out to be 1.9 cm.

As for `CC12OC(C)(C3OOC1O3)C1CCCCC2C1=O` (mixture of isomers), the Activity is given as 2.7 cm.

For the next assay, the system named is Sorghum bicolor. In words: Phytotoxic activity against Sorghum bicolor assessed as aerial part growth inhibition at 5.0 x 10^-4 mol/l measured 15 days after seed sowing under greenhouse trials (reference value: 0.0%). It counts as functional. The note with it: 360 h.
In the case of `O=C1[C@@H]2CCCC[C@@H]1[C@@H]1C=C[C@@H]2O1`, the inhibition at 500 µM is 4.5%.

`CC12OC(C)(C3OOC1O3)C1CCCCC2C1=O` (mixture of isomers): the inhibition at 500 µM turned out to be 53.9%.

For another assay, the system named is Urochloa decumbens. In words: Phytotoxic activity against Urochloa decumbens assessed as weight of aerial parts at 5.0 x 10^-4 mol/l measured 21 days after seed sowing under greenhouse trials (reference value: 22.0 mg).
Conditions: not given
It counts as functional.
Turning to `CC12OC(C)(C3OOC1O3)C1CCCCC2C1=O` (mixture of isomers), the Activity is recorded as 4.4 mg.

The next assay deals with Ipomoea grandifolia. In words: Phytotoxic activity against Ipomoea grandifolia assessed as weight of aerial parts at 5.0 x 10^-4 mol/l measured 21 days after seed sowing under greenhouse trials (reference value: 17.8 mg). It counts as functional.
Conditions: not given
`CC12OC(C)(C3OOC1O3)C1CCCCC2C1=O` (mixture of isomers): the Activity is 6.2 mg.

For another assay, the system named is Cucumis sativus. Kind of assay: Phytotoxic activity against Cucumis sativus (cucumber) assessed as aerial part growth inhibition at 5.0 x 10^-4 mol/l measured 15 days after seed sowing under greenhouse trials (reference value: 0.0%). It counts as functional. The settings on record: 360 h.
Take `O=C1[C@@H]2CCCC[C@@H]1[C@@H]1C=C[C@@H]2O1`: the inhibition at 500 µM worked out at 30.4%.

Take `CC12OC(C)(C3OOC1O3)C1CCCCC2C1=O` (mixture of isomers): the inhibition at 500 µM came to 43.8%.

The subject of the next assay is Sorghum bicolor. Kind of assay: Phytotoxic activity against Sorghum bicolor seedlings assessed as germination at 5x10'-4 mol/l at 28 +/-1 degC after 48 hr by acid-washed sand based radicle elongation assay (reference value: 100%). It is filed as functional.
Conditions: not given
On to `O=C1[C@@H]2CCCC[C@@H]1[C@@H]1C=C[C@@H]2O1`, for which the germination % at 500 µM amounted to 93%.

`CC12OC(C)(C3OOC1O3)C1CCCCC2C1=O` (mixture of isomers): the germination % at 500 µM came to 100%.

The test system of another assay is Sorghum bicolor. In words: Phytotoxic activity against Sorghum bicolor assessed as weight of aerial parts at 5.0 x 10^-4 mol/l measured 15 days after seed sowing under greenhouse trials (reference value: 19.0 mg). It is filed as functional.
Conditions: not given
Regarding `O=C1[C@@H]2CCCC[C@@H]1[C@@H]1C=C[C@@H]2O1`, the Activity worked out at 18.1 mg.

On to `CC12OC(C)(C3OOC1O3)C1CCCCC2C1=O` (mixture of isomers), for which the Activity stood at 8.8 mg.

In a further assay the test system is Urochloa decumbens. In words: Phytotoxic activity against Urochloa decumbens assessed as weight of root at 5.0 x 10^-4 mol/l measured 21 days after seed sowing under greenhouse trials (reference value: 21.2 mg). It is filed as functional.
Conditions: not given
Regarding `CC12OC(C)(C3OOC1O3)C1CCCCC2C1=O` (mixture of isomers), the Activity was 3.6 mg.

Another assay deals with Cucumis sativus. In words: Phytotoxic activity against Cucumis sativus (cucumber) assessed as root growth inhibition at 5.0 x 10^-4 mol/l measured 15 days after seed sowing under greenhouse trials (reference value: 0.0%). It is filed as functional. The settings on record: 360 h.
As for `O=C1[C@@H]2CCCC[C@@H]1[C@@H]1C=C[C@@H]2O1`, the inhibition at 500 µM turned out to be 47.3%.

On to `CC12OC(C)(C3OOC1O3)C1CCCCC2C1=O` (mixture of isomers), for which the inhibition at 500 µM was 79.7%.

Another assay has as its system Cucumis sativus. In words: Phytotoxic activity against Cucumis sativus (cucumber) seedlings assessed as radicle length at 5x10'-4 mol/l at 28 +/-1 degC after 48 hr by acid-washed sand based radicle elongation assay (reference value: 4.8 cm). It counts as functional.
Conditions: not given
For `O=C1[C@@H]2CCCC[C@@H]1[C@@H]1C=C[C@@H]2O1`, the Activity is reported as 0.9 cm.

In the case of `CC12OC(C)(C3OOC1O3)C1CCCCC2C1=O` (mixture of isomers), the Activity is 1.5 cm.

The subject of the next assay is Ipomoea grandifolia. In words: Phytotoxic activity against Ipomoea grandifolia assessed as weight of root at 5.0 x 10^-4 mol/l measured 21 days after seed sowing under greenhouse trials (reference value: 18.4 mg).
Conditions: not given
It is filed as functional.
Turning to `CC12OC(C)(C3OOC1O3)C1CCCCC2C1=O` (mixture of isomers), the Activity stood at 5.7 mg.

For another assay, the system named is Sorghum bicolor. In words: Phytotoxic activity against Sorghum bicolor assessed as root growth inhibition at 5.0 x 10^-4 mol/l measured 15 days after seed sowing under greenhouse trials (reference value: 0.0%). It counts as functional. The note with it: 360 h.
Regarding `O=C1[C@@H]2CCCC[C@@H]1[C@@H]1C=C[C@@H]2O1`, the inhibition at 500 µM was determined as 6.2%.

Turning to `CC12OC(C)(C3OOC1O3)C1CCCCC2C1=O` (mixture of isomers), the inhibition at 500 µM stood at 18.2%.

In another assay the test system is Cucumis sativus. In words: Phytotoxic activity against Cucumis sativus (cucumber) assessed as weight of roots at 5.0 x 10^-4 mol/l measured 15 days after seed sowing under greenhouse trials (reference value: 31.0 mg). It counts as functional.
Conditions: not given
As to `O=C1[C@@H]2CCCC[C@@H]1[C@@H]1C=C[C@@H]2O1`, the Activity was found to be 16.5 mg.

On to `CC12OC(C)(C3OOC1O3)C1CCCCC2C1=O` (mixture of isomers), for which the Activity amounted to 6.3 mg.

The test system of another assay is Cucumis sativus. In words: Phytotoxic activity against Cucumis sativus (cucumber) seedlings assessed as inhibition of radicle growth at 5x10'-4 mol/l at 28 +/-1 degC after 48 hr by acid-washed sand based radicle elongation assay (reference value: 0.0%).
Conditions: not given
It is filed as functional.
`O=C1[C@@H]2CCCC[C@@H]1[C@@H]1C=C[C@@H]2O1`: the inhibition at 500 µM is 82.2%.

Take `CC12OC(C)(C3OOC1O3)C1CCCCC2C1=O` (mixture of isomers): the inhibition at 500 µM stood at 69.1%.

In the next assay the test system is Urochloa decumbens. Kind of assay: Phytotoxic activity against Urochloa decumbens assessed as aerial part growth inhibition at 5.0 x 10^-4 mol/l measured 21 days after seed sowing under greenhouse trials (reference value: 0.0%). It counts as functional. The note with it: 504 h.
In the case of `CC12OC(C)(C3OOC1O3)C1CCCCC2C1=O` (mixture of isomers), the inhibition at 500 µM was 79.7%.

Another assay has as its system Sorghum bicolor. In words: Phytotoxic activity against Sorghum bicolor assessed as weight of roots at 5.0 x 10^-4 mol/l measured 15 days after seed sowing under greenhouse trials (reference value: 14.0 mg). It counts as functional.
Conditions: not given
In the case of `O=C1[C@@H]2CCCC[C@@H]1[C@@H]1C=C[C@@H]2O1`, the Activity is 13.1 mg.

With `CC12OC(C)(C3OOC1O3)C1CCCCC2C1=O` (mixture of isomers), the Activity came out at 11.5 mg.

A further assay relates to Urochloa decumbens. Kind of assay: Phytotoxic activity against Urochloa decumbens assessed as root growth inhibition at 5.0 x 10^-4 mol/l measured 21 days after seed sowing under greenhouse trials (reference value: 0.0%). It counts as functional. The settings on record: 504 h.
Turning to `CC12OC(C)(C3OOC1O3)C1CCCCC2C1=O` (mixture of isomers), the inhibition at 500 µM was 83%.

The test system of a further assay is Cucumis sativus. In words: Phytotoxic activity against Cucumis sativus (cucumber) seedlings assessed as germination at 5x10'-4 mol/l at 28 +/-1 degC after 48 hr by acid-washed sand based radicle elongation assay (reference value: 100%).
Conditions: not given
It counts as functional.
On to `O=C1[C@@H]2CCCC[C@@H]1[C@@H]1C=C[C@@H]2O1`, for which the germination % at 500 µM is 90%.

On to `CC12OC(C)(C3OOC1O3)C1CCCCC2C1=O` (mixture of isomers), for which the germination % at 500 µM is 100%.

Another assay deals with Sorghum bicolor. Kind of assay: Phytotoxic activity against Sorghum bicolor seedlings assessed as inhibition of radicle growth at 5x10'-4 mol/l at 28 +/-1 degC after 48 hr by acid-washed sand based radicle elongation assay (reference value: 0.0%). It counts as functional.
Conditions: not given
For `O=C1[C@@H]2CCCC[C@@H]1[C@@H]1C=C[C@@H]2O1`, the inhibition at 500 µM amounted to 62%.

`CC12OC(C)(C3OOC1O3)C1CCCCC2C1=O` (mixture of isomers): the inhibition at 500 µM turned out to be 47.1%.

In general, inhibition refers to the change of the read-out against control, counted positive when it falls.
